19 molecules from publication PMC6271078 (Molecules, 2014) can be followed below.

Counter-ions that a name gives are not always drawn.

In general, melting point refers to the temperature of the solid-liquid transition. The solubility is the dissolved amount per volume that the medium holds. In general, Aqueous Solubility refers to the dissolved amount per volume that the medium holds. High values mean a readily soluble substance, low ones a poorly soluble substance.

One series is described as follows: Aqueous solubility. Conditions: for Times Increased of Aqueous Solubility (Comp. vs. Rapa): ratio of compound solubility to Rapa solubility; for solubility / Aqueous Solubility: water. Type of series: physicochemical.

Take `CO[C@H]1C[C@@H]2CC[C@@H](C)[C@@](O)(O2)C(=O)C(=O)N2CCCC[C@H]2C(=O)O[C@H]([C@H](C)C[C@@H]2CC[C@@H](O)[C@H](OC)C2)CC(=O)[C@H](C)/C=C(\C)[C@@H](OC(=O)C[n+]2ccc(C)cc2)[C@@H](OC)C(=O)[C@H](C)C[C@H](C)/C=C/C=C/C=C/1C` (as salt: ammonium) [Compound 11, Rapa-31-ester of 2-(4-methylpyridinium-1-yl)acetic Acid]: the melting point fell in the range of 145 to 148 °C. As for `CO[C@H]1C[C@@H]2CC[C@@H](C)[C@@](O)(O2)C(=O)C(=O)N2CCCC[C@H]2C(=O)O[C@H]([C@H](C)C[C@@H]2CC[C@@H](OC(=O)C[n+]3ccc(C)cc3)[C@H](OC)C2)CC(=O)[C@H](C)/C=C(\C)[C@@H](O)[C@@H](OC)C(=O)[C@H](C)C[C@H](C)/C=C/C=C/C=C/1C` [Compound 6, Rapa-42-ester of 2-(4-methylpyridinium-1-yl)acetic Acid], in the series “Aqueous solubility”, the “Times Increased of Aqueous Solubility (Comp. vs. Rapa)” value (shortened to “Times Increased of Aqueous Solubility”) stood at 2308 and the solubility worked out at 6000 µg/mL.

With `CO[C@H]1C[C@@H]2CC[C@@H](C)[C@@](O)(O2)C(=O)C(=O)N2CCCC[C@H]2C(=O)O[C@H]([C@H](C)C[C@@H]2CC[C@@H](O)[C@H](OC)C2)CC(=O)[C@H](C)/C=C(\C)[C@@H](OC(=O)C[n+]2cscc2C)[C@@H](OC)C(=O)[C@H](C)C[C@H](C)/C=C/C=C/C=C/1C` (as salt: ammonium) [Compound 8, Rapa-31-ester of 2-(4-methylthiazolium-3-yl)acetic Acid], the melting point lay in the range of 130 to 132 °C. On to `CO[C@H]1C[C@@H]2CC[C@@H](C)[C@@](O)(O2)C(=O)C(=O)N2CCCC[C@H]2C(=O)O[C@H]([C@H](C)C[C@@H]2CC[C@@H](O)[C@H](OC)C2)CC(=O)[C@H](C)/C=C(\C)[C@@H](OC(=O)C[n+]2csc(C)c2C)[C@@H](OC)C(=O)[C@H](C)C[C@H](C)/C=C/C=C/C=C/1C` [Compound 7, Rapa-31-ester of 2-(4,5-dimethylthiazolium-3-yl)acetic Acid], for which, in the series “Aqueous solubility”, the “Times Increased of Aqueous Solubility” value stood at 8962 and the solubility is 23300 µg/mL. Take `CO[C@H]1C[C@@H]2CC[C@@H](C)[C@@](O)(O2)C(=O)C(=O)N2CCCC[C@H]2C(=O)O[C@H]([C@H](C)C[C@@H]2CC[C@@H](OC(=O)C[n+]3csc(C)c3C)[C@H](OC)C2)CC(=O)[C@H](C)/C=C(\C)[C@@H](O)[C@@H](OC)C(=O)[C@H](C)C[C@H](C)/C=C/C=C/C=C/1C` [Compound 1, Rapa-42-ester of 2-(4,5-dimethylthiazolium-3-yl)acetic Acid]: in the series “Aqueous solubility”, the “Times Increased of Aqueous Solubility” value is 1615 and the concentration in solution (solubility) came to 4200 µg/mL. `CO[C@H]1C[C@@H]2CC[C@@H](C)[C@@](O)(O2)C(=O)C(=O)N2CCCC[C@H]2C(=O)O[C@H]([C@H](C)C[C@@H]2CC[C@@H](OC(=O)C[n+]3ccc(C)cc3)[C@H](OC)C2)CC(=O)[C@H](C)/C=C(\C)[C@@H](O)[C@@H](OC)C(=O)[C@H](C)C[C@H](C)/C=C/C=C/C=C/1C` (as salt: ammonium) [Compound 6, Rapa-42-ester of 2-(4-methylpyridinium-1-yl)acetic Acid] came in with a melting point of 157 to 160 °C. On to `CO[C@H]1C[C@@H]2CC[C@@H](C)[C@@](O)(O2)C(=O)C(=O)N2CCCC[C@H]2C(=O)O[C@H]([C@H](C)C[C@@H]2CC[C@@H](O)[C@H](OC)C2)CC(=O)[C@H](C)/C=C(\C)[C@@H](OC(=O)C[n+]2ccccc2)[C@@H](OC)C(=O)[C@H](C)C[C@H](C)/C=C/C=C/C=C/1C` (as salt: ammonium) [Compound 10, Rapa-31-ester of 2-(pyridinium-1-yl)acetic Acid], for which the melting point was in the range of 140 to 142 °C.

Consider `CO[C@H]1C[C@@H]2CC[C@@H](C)[C@@](O)(O2)C(=O)C(=O)N2CCCC[C@H]2C(=O)O[C@H]([C@H](C)C[C@@H]2CC[C@@H](OC(=O)C[n+]3cccc(C)c3)[C@H](OC)C2)CC(=O)[C@H](C)/C=C(\C)[C@@H](O)[C@@H](OC)C(=O)[C@H](C)C[C@H](C)/C=C/C=C/C=C/1C` (as salt: ammonium) [Compound 4, Rapa-42-ester of 2-(3-methylpyridinium-1-yl)acetic Acid], for which the melting point was in the range of 138 to 140 °C.

Turning to `CO[C@H]1C[C@@H]2CC[C@@H](C)[C@@](O)(O2)C(=O)C(=O)N2CCCC[C@H]2C(=O)O[C@H]([C@H](C)C[C@@H]2CC[C@@H](O)[C@H](OC)C2)CC(=O)[C@H](C)/C=C(\C)[C@@H](OC(=O)C[n+]2cccc(C)c2)[C@@H](OC)C(=O)[C@H](C)C[C@H](C)/C=C/C=C/C=C/1C` [Compound 9, Rapa-31-ester of 2-(3-methylpyridinium-1-yl)acetic Acid], in “Aqueous solubility”, the “Times Increased of Aqueous Solubility” value worked out at 10269 and the concentration in solution (solubility) was 26700 µg/mL. Turning to `CO[C@H]1C[C@@H]2CC[C@@H](C)[C@@](O)(O2)C(=O)C(=O)N2CCCC[C@H]2C(=O)O[C@H]([C@H](C)C[C@@H]2CC[C@@H](O)[C@H](OC)C2)CC(=O)[C@H](C)/C=C(\C)[C@@H](OC(=O)C[n+]2ccc(C)cc2)[C@@H](OC)C(=O)[C@H](C)C[C@H](C)/C=C/C=C/C=C/1C` [Compound 11, Rapa-31-ester of 2-(4-methylpyridinium-1-yl)acetic Acid], in “Aqueous solubility”, the “Aqueous Solubility” value stood at 62500 µg/mL and the concentration in solution (solubility) came to 62000 µg/mL. Consider `CO[C@H]1C[C@@H]2CC[C@@H](C)[C@@](O)(O2)C(=O)C(=O)N2CCCC[C@H]2C(=O)O[C@H]([C@H](C)C[C@@H]2CC[C@@H](O)[C@H](OC)C2)CC(=O)[C@H](C)/C=C(\C)[C@@H](OC(=O)C[n+]2cccc(C)c2)[C@@H](OC)C(=O)[C@H](C)C[C@H](C)/C=C/C=C/C=C/1C` (as salt: ammonium) [Compound 9, Rapa-31-ester of 2-(3-methylpyridinium-1-yl)acetic Acid], for which the melting point lay in the range of 138 to 140 °C. With `CO[C@H]1C[C@@H]2CC[C@@H](C)[C@@](O)(O2)C(=O)C(=O)N2CCCC[C@H]2C(=O)O[C@H]([C@H](C)C[C@@H]2CC[C@@H](OC(=O)C[n+]3cccc(O)c3)[C@H](OC)C2)CC(=O)[C@H](C)/C=C(\C)[C@@H](O)[C@@H](OC)C(=O)[C@H](C)C[C@H](C)/C=C/C=C/C=C/1C` [Compound 5, Rapa-42-ester of 2-(3-hydroxypyridinium-1-yl)acetic Acid], in the series “Aqueous solubility”, the “Times Increased of Aqueous Solubility” value amounted to 4 and the solubility was 10 µg/mL. In the case of `CO[C@H]1C[C@@H]2CC[C@@H](C)[C@@](O)(O2)C(=O)C(=O)N2CCCC[C@H]2C(=O)O[C@H]([C@H](C)C[C@@H]2CC[C@@H](OC(=O)C[n+]3ccccc3)[C@H](OC)C2)CC(=O)[C@H](C)/C=C(\C)[C@@H](O)[C@@H](OC)C(=O)[C@H](C)C[C@H](C)/C=C/C=C/C=C/1C` [Compound 3, Rapa-42-ester of 2-(pyridinium-1-yl)acetic Acid], in the series “Aqueous solubility”, the “Times Increased of Aqueous Solubility” value is listed as 10 and the concentration in solution (solubility) was 25 µg/mL. Consider `CO[C@H]1C[C@@H]2CC[C@@H](C)[C@@](O)(O2)C(=O)C(=O)N2CCCC[C@H]2C(=O)O[C@H]([C@H](C)C[C@@H]2CC[C@@H](OC(=O)C[n+]3cccc(O)c3)[C@H](OC)C2)CC(=O)[C@H](C)/C=C(\C)[C@@H](O)[C@@H](OC)C(=O)[C@H](C)C[C@H](C)/C=C/C=C/C=C/1C` (as salt: ammonium) [Compound 5, Rapa-42-ester of 2-(3-hydroxypyridinium-1-yl)acetic Acid], for which the melting point lay in the range of 146 to 148 °C. As for `CO[C@H]1C[C@@H]2CC[C@@H](C)[C@@](O)(O2)C(=O)C(=O)N2CCCC[C@H]2C(=O)O[C@H]([C@H](C)C[C@@H]2CC[C@@H](OC(=O)C[n+]3ccccc3)[C@H](OC)C2)CC(=O)[C@H](C)/C=C(\C)[C@@H](O)[C@@H](OC)C(=O)[C@H](C)C[C@H](C)/C=C/C=C/C=C/1C` (as salt: ammonium) [Compound 3, Rapa-42-ester of 2-(pyridinium-1-yl)acetic Acid], the melting point lay within 135 to 137 °C. For `CO[C@H]1C[C@@H]2CC[C@@H](C)[C@@](O)(O2)C(=O)C(=O)N2CCCC[C@H]2C(=O)O[C@H]([C@H](C)C[C@@H]2CC[C@@H](OC(=O)C[n+]3cscc3C)[C@H](OC)C2)CC(=O)[C@H](C)/C=C(\C)[C@@H](O)[C@@H](OC)C(=O)[C@H](C)C[C@H](C)/C=C/C=C/C=C/1C` [Compound 2, Rapa-42-ester of 2-(4-methylthiazolium-3-yl)acetic Acid], in “Aqueous solubility”, the “Times Increased of Aqueous Solubility” value is reported as 11 and the solubility is 28 µg/mL. `CO[C@H]1C[C@@H]2CC[C@@H](C)[C@@](O)(O2)C(=O)C(=O)N2CCCC[C@H]2C(=O)O[C@H]([C@H](C)C[C@@H]2CC[C@@H](OC(=O)C[n+]3cccc(C)c3)[C@H](OC)C2)CC(=O)[C@H](C)/C=C(\C)[C@@H](O)[C@@H](OC)C(=O)[C@H](C)C[C@H](C)/C=C/C=C/C=C/1C` [Compound 4, Rapa-42-ester of 2-(3-methylpyridinium-1-yl)acetic Acid]: in “Aqueous solubility”, the “Times Increased of Aqueous Solubility” value amounted to 2577 and the concentration in solution (solubility) came to 6700 µg/mL.

With `CO[C@H]1C[C@@H]2CC[C@@H](C)[C@@](O)(O2)C(=O)C(=O)N2CCCC[C@H]2C(=O)O[C@H]([C@H](C)C[C@@H]2CC[C@@H](O)[C@H](OC)C2)CC(=O)[C@H](C)/C=C(\C)[C@@H](OC(=O)C[n+]2ccccc2)[C@@H](OC)C(=O)[C@H](C)C[C@H](C)/C=C/C=C/C=C/1C` [Compound 10, Rapa-31-ester of 2-(pyridinium-1-yl)acetic Acid], in “Aqueous solubility”, the “Aqueous Solubility” value is 52600 µg/mL and the solubility came out at 62000 µg/mL. On to `CO[C@H]1C[C@@H]2CC[C@@H](C)[C@@](O)(O2)C(=O)C(=O)N2CCCC[C@H]2C(=O)O[C@H]([C@H](C)C[C@@H]2CC[C@@H](O)[C@H](OC)C2)CC(=O)[C@H](C)/C=C(\C)[C@@H](OC(=O)C[n+]2cscc2C)[C@@H](OC)C(=O)[C@H](C)C[C@H](C)/C=C/C=C/C=C/1C` [Compound 8, Rapa-31-ester of 2-(4-methylthiazolium-3-yl)acetic Acid], for which, in the series “Aqueous solubility”, the “Times Increased of Aqueous Solubility” value came to 3846 and the concentration in solution (solubility) came to 10000 µg/mL.
